In patent US20080090845A1, “Haloalkyl-substituted pyrimidinone derivatives” (Neurogen Corporation, priority 2006, published 2008):

These compounds were tested against T1, human capsaicin receptor (Homo sapiens, UniProt Q8NER1) (assay: Calcium mobilization assay, determination of antagonist activity (Example 6)). Conditions: cells expressing human capsaicin receptor, capsaicin-induced fluorescence response; read-out: IC50.
T1 construct: pBK-CMV expression construct encoding the full length human capsaicin receptor; expressed in transfected cells
T1 sequence (Q8NER1 whole entry): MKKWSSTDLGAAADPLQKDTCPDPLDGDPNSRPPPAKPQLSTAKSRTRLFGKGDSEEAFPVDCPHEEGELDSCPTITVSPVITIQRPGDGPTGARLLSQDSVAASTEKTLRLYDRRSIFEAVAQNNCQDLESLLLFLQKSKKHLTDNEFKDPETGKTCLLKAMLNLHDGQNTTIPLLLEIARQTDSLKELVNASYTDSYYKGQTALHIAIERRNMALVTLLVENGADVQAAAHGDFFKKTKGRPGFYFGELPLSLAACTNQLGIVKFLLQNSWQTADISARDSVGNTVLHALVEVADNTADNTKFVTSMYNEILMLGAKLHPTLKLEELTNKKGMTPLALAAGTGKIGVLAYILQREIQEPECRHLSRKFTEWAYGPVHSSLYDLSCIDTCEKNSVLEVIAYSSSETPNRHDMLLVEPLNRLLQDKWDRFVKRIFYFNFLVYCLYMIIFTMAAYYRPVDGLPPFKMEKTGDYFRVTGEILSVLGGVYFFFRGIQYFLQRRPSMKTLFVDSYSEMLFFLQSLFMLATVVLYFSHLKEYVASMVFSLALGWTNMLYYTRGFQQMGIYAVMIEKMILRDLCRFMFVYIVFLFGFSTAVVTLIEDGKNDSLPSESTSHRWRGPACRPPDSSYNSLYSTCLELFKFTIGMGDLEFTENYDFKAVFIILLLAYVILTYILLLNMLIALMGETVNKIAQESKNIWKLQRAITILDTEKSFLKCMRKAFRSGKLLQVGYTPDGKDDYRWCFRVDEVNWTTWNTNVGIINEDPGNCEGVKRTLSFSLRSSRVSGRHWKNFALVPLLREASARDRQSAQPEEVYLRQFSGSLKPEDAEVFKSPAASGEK
Assay type: cell-based
Protocol: A cDNA encoding full length human capsaicin receptor (SEQ ID NO:1, 2 or 3 of U.S. Pat. No. 6,482,611) is subcloned in the plasmid pBK-CMV (Stratagene, La Jolla, Calif.) for recombinant expression in mammalian cells.
Human embryonic kidney (HEK293) cells are transfected with the pBK-CMV expression construct encoding the full length human capsaicin receptor using standard methods. The transfected cells are selected for two weeks in media containing G418 (400 μg/ml) to obtain a pool of stably transfected cells. Independent clones are isolated from this pool by limiting dilution to obtain clonal stable cell lines for use in subsequent experiments.
Cells transfected with expression plasmids (as described in Example 4) and thereby expressing human capsaicin receptor are seeded and grown to 70-90% confluency in FALCON black-walled, clear-bottomed 96-well plates (#3904, BECTON-DICKINSON, Franklin Lakes, N.J.). The culture medium is emptied from the 96 well plates and FLUO-3 AM calcium sensitive dye (Molecular Probes, Eugene, Oreg.) is added to each well (dye solution: 1 mg FLUO-3 AM, 440 μl DMSO and 440 μl 20% pluronic acid in DMSO diluted 1:250 in Krebs-Ringer HEPES (KRH) buffer (25 mM HEPES, 5 mM KCl, 0.96 mM NaH2PO4, 1 mM MgSO4, 2 mM CaCl2, 5 mM glucose, 1 mM probenecid, pH 7.4), 50 μl diluted solution per well). Plates are covered with aluminum foil and incubated at 37° C. for 1-2 hours in an environment containing 5% CO2. After the incubation, the dye is emptied from the plates, and the cells are washed once with KRH buffer, and resuspended in KRH buffer.
To measure the ability of a test compound to agonize or antagonize a calcium mobilization response in cells expressing capsaicin receptors to capsaicin or other vanilloid agonist, the EC50 of the agonist capsaicin is first determined. An additional 20 μl of KRH buffer and 1 μl DMSO is added to each well of cells, prepared as described above. 100 μl capsaicin in KRH buffer is automatically transferred by the FLIPR instrument to each well. Capsaicin-induced calcium mobilization is monitored using either FLUOROSKAN ASCENT (Labsystems; Franklin, Mass.) or FLIPR (fluorometric imaging plate reader system; Molecular Devices, Sunnyvale, Calif.) instruments. Data obtained between 30 and 60 seconds after agonist application are used to generate an 8-point concentration response curve, with final capsaicin concentrations of 1 nM to 3 μM. KALEIDAGRAPH software (Synergy Software, Reading, Pa.) is used to fit the data to the equation: y=a*(1/(1+(b/x)^c)) to determine the 50% excitatory concentration (EC50) for the response. In this equation, y is the maximum fluorescence signal, x is the concentration of the agonist or antagonist (in this case, capsaicin), a is the Emax, b corresponds to the EC50 value and c is the Hill coefficient. Determination of Agonist Activity
Test compounds are dissolved in DMSO, diluted in 20 μl KRH buffer so that the final concentration of test compounds in the assay well is between 1 μM and 5 μM, and added to cells prepared as described above. The 96 well plates containing prepared cells and test compounds are incubated in the dark, at room temperature for 0.5 to 6 hours. It is important that the incubation not continue beyond 6 hours. Just prior to determining the fluorescence response, 100 μl capsaicin in KRH buffer at twice the EC50 concentration determined as described above is automatically added by the FLIPR instrument to each well of the 96 well plate for a final sample volume of 200 μl and a final capsaicin concentration equal to the EC50. The final concentration of test compounds in the assay wells is between 1 μM and 5 μM. […] The concentration of antagonist required to provide a 50% decrease, relative to the response observed in the presence of capsaicin and without antagonist, is the IC50 for the antagonist, and is preferably below 1 micromolar, 100 nanomolar, 10 nanomolar or 1 nanomolar.

Row | IC50 [µM] | SMILES
1 | ≤ 0.1 | CCn1cnc2c(=O)n(-c3ccc(Cl)cc3)c(CC(C)C(F)(F)F)nc21 (stereo not shown) [Compound 8, 1-(4-chlorophenyl)-9-ethyl-2-(3,3,3-trifluoro-2-methylpropyl)-1,9-dihydro-6H-purin-6-one]
2 | ≤ 0.1 | CC(Cc1nc2c(ncn2C)c(=O)n1-c1ccc(Cl)cc1)C(F)(F)F (stereo not shown) [Compound 9, 1-(4-chlorophenyl)-9-methyl-2-(3,3,3-trifluoro-2-methylpropyl)-1,9-dihydro-6H-purin-6-one]
3 | ≤ 0.1 | CCn1cnc2c(=O)n(-c3ccc(F)cc3)c(CC(C)C(F)(F)F)nc21 (stereo not shown) [Compound 10, 9-ethyl-1-(4-fluorophenyl)-2-(3,3,3-trifluoro-2-methylpropyl)-1,9-dihydro-6H-purin-6-one]
4 | ≤ 0.1 | CCn1cnc2c(=O)n(-c3ccc(Cl)cc3)c(CC(C)CC(F)(F)F)nc21 (stereo not shown) [Compound 11, 1-(4-chlorophenyl)-9-ethyl-2-(4,4,4-trifluoro-2-methylbutyl)-1,9-dihydro-6H-purin-6-one]
5 | ≤ 0.1 | CC(Cc1nc2c(ncn2C)c(=O)n1-c1ccc(Cl)cc1)CC(F)(F)F (stereo not shown) [Compound 12, 1-(4-chlorophenyl)-9-methyl-2-(4,4,4-trifluoro-2-methylbutyl)-1,9-dihydro-6H-purin-6-one]
6 | ≤ 0.1 | CCn1cnc2c(=O)n(-c3ccc(F)cc3)c(CC(C)CC(F)(F)F)nc21 (stereo not shown) [Compound 13, 9-ethyl-1-(4-fluorophenyl)-2-(4,4,4-trifluoro-2-methylbutyl)-1,9-dihydro-6H-purin-6-one]
7 | ≤ 0.1 | CC(Cc1nc2c(ncn2C)c(=O)n1-c1ccc(F)cc1)CC(F)(F)F (stereo not shown) [Compound 14, 1-(4-fluorophenyl)-9-methyl-2-(4,4,4-trifluoro-2-methylbutyl)-1,9-dihydro-6H-purin-6-one]
8 | ≤ 0.1 | CC(Cc1nc2c(ncn2C2CC2)c(=O)n1-c1ccc(Cl)cc1)CC(F)(F)F (stereo not shown) [Compound 15, 1-(4-chlorophenyl)-9-cyclopropyl-2-(4,4,4-trifluoro-2-methylbutyl)-1,9-dihydro-6H-purin-6-one]
9 | ≤ 0.1 | CCn1cnc2c(=O)n(-c3ccc(Cl)cc3)c(CCC(C)C(F)(F)F)nc21 (stereo not shown) [Compound 16, 1-(4-chlorophenyl)-9-ethyl-2-(4,4,4-trifluoro-3-methylbutyl)-1,9-dihydro-6H-purin-6-one]
10 | ≤ 0.1 | CC(CCc1nc2c(ncn2C)c(=O)n1-c1ccc(Cl)cc1)C(F)(F)F (stereo not shown) [Compound 17, 1-(4-chlorophenyl)-9-methyl-2-(4,4,4-trifluoro-3-methylbutyl)-1,9-dihydro-6H-purin-6-one]
11 | ≤ 0.1 | CCn1cnc2c(=O)n(-c3ccc(F)cc3)c(CCC(C)C(F)(F)F)nc21 (stereo not shown) [Compound 18, 9-ethyl-1-(4-fluorophenyl)-2-(4,4,4-trifluoro-3-methylbutyl)-1,9-dihydro-6H-purin-6-one]
12 | ≤ 0.1 | CC(CCc1nc2c(ncn2C)c(=O)n1-c1ccc(F)cc1)C(F)(F)F (stereo not shown) [Compound 19, 1-(4-fluorophenyl)-9-methyl-2-(4,4,4-trifluoro-3-methylbutyl)-1,9-dihydro-6H-purin-6-one]
13 | ≤ 0.1 | CC(Cc1nc2c(ncn2CC(F)(F)F)c(=O)n1-c1ccc(Cl)cc1)CC(F)(F)F (stereo not shown) [Compound 20, 1-(4-chlorophenyl)-9-(2,2,2-trifluoroethyl)-2-(4,4,4-trifluoro-2-methylbutyl)-1,9-dihydro-6H-purin-6-one]
14 | ≤ 0.1 | CC(Cc1nc2c(ncn2CC(F)F)c(=O)n1-c1ccc(Cl)cc1)CC(F)(F)F (stereo not shown) [Compound 21, 1-(4-chlorophenyl)-9-(2,2-difluoroethyl)-2-(4,4,4-trifluoro-2-methylbutyl)-1,9-dihydro-6H-purin-6-one]
15 | ≤ 0.1 | CC(Cc1nc2c(ncn2CC(F)F)c(=O)n1-c1ccc(Cl)cc1)C(F)(F)F (stereo not shown) [Compound 22, 1-(4-chlorophenyl)-9-(2,2-difluoroethyl)-2-(3,3,3-trifluoro-2-methylpropyl)-1,9-dihydro-6H-purin-6-one]
16 | ≤ 0.1 | CC(CCc1nc2c(ncn2CC(F)F)c(=O)n1-c1ccc(Cl)cc1)C(F)(F)F (stereo not shown) [Compound 23, 1-(4-chlorophenyl)-9-(2,2-difluoroethyl)-2-(4,4,4-trifluoro-3-methylbutyl)-1,9-dihydro-6H-purin-6-one]
17 | ≤ 0.1 | CC(Cc1nc2c(ncn2CC(F)(F)F)c(=O)n1-c1ccc(Cl)cc1)C(F)(F)F (stereo not shown) [Compound 24, 1-(4-chlorophenyl)-9-(2,2,2-trifluoroethyl)-2-(3,3,3-trifluoro-2-methylpropyl)-1,9-dihydro-6H-purin-6-one]
18 | ≤ 0.1 | CC(CCc1nc2c(ncn2CC(F)(F)F)c(=O)n1-c1ccc(Cl)cc1)C(F)(F)F (stereo not shown) [Compound 25, 1-(4-chlorophenyl)-9-(2,2,2-trifluoroethyl)-2-(4,4,4-trifluoro-3-methylbutyl)-1,9-dihydro-6H-purin-6-one]
19 | ≤ 0.1 | CC(Cc1nc2c(ncn2CC(F)F)c(=O)n1-c1ccc(F)cc1)CC(F)(F)F (stereo not shown) [Compound 26, 9-(2,2-difluoroethyl)-1-(4-fluorophenyl)-2-(4,4,4-trifluoro-2-methylbutyl)-1,9-dihydro-6H-purin-6-one]
20 | ≤ 0.1 | CC(CCc1nc2c(ncn2CC(F)F)c(=O)n1-c1ccc(F)cc1)C(F)(F)F (stereo not shown) [Compound 27, 9-(2,2-difluoroethyl)-1-(4-fluorophenyl)-2-(4,4,4-trifluoro-3-methylbutyl)-1,9-dihydro-6H-purin-6-one]
21 | ≤ 0.1 | CC(CCc1nc2c(ncn2C)c(=O)n1-c1ccc(C#N)cc1)C(F)(F)F (stereo not shown) [Compound 28, 4-[9-methyl-6-oxo-2-(4,4,4-trifluoro-3-methylbutyl)-6,9-dihydro-1H-purin-1-yl]benzonitrile]
22 | ≤ 0.1 | CC(Cc1nc2c(ncn2C)c(=O)n1-c1ccc(C#N)cc1)CC(F)(F)F (stereo not shown) [Compound 29, 4-[9-methyl-6-oxo-2-(4,4,4-trifluoro-2-methylbutyl)-6,9-dihydro-1H-purin-1-yl]benzonitrile]
23 | ≤ 0.1 | C[C@H](Cc1nc2c(ncn2C)c(=O)n1-c1ccc(Cl)cc1)CC(F)(F)F [Compound 30, 1-(4-chlorophenyl)-9-methyl-2-[(2R)-4,4,4-trifluoro-2-methylbutyl]-1,9-dihydro-6H-purin-6-one]
24 | ≤ 0.1 | CCn1cnc2c(=O)n(-c3ccc(C#N)cc3)c(CC(C)CC(F)(F)F)nc21 (stereo not shown) [Compound 31, 4-[9-ethyl-6-oxo-2-(4,4,4-trifluoro-2-methylbutyl)-6,9-dihydro-1H-purin-1-yl]benzonitrile]
25 | ≤ 0.1 | C[C@@H](CCc1nc2c(ncn2C)c(=O)n1-c1ccc(Cl)cc1)C(F)(F)F [Compound 32, 1-(4-chlorophenyl)-9-methyl-2-[(3S)-4,4,4-fluoro-3-methylbutyl]-1,9-dihydro-6H-purin-6-one]
26 | ≤ 0.1 | C[C@H](CCc1nc2c(ncn2C)c(=O)n1-c1ccc(Cl)cc1)C(F)(F)F [Compound 33, 1-(4-chlorophenyl)-9-methyl-2-[(3R)-4,4,4-fluoro-3-methylbutyl]-1,9-dihydro-6H-purin-6-one]

Same assay, conditions: cells expressing human capsaicin receptor, capsaicin-induced fluorescence response; read-out: IC50 determined as described in Example 6

Row | IC50 [µM] | SMILES
27 | ≤ 0.1 | C[C@H](Cc1nc2c(ncn2C)c(=O)n1-c1ccc(Cl)cc1)C(F)(F)F [Compound 6, (R)-1-(4-Chlorophenyl)-9-methyl-2-(3,3,3-trifluoro-2-methylpropyl)-1H-purin-6(9H)-one]
28 | ≤ 0.1 | CCn1cnc2c(=O)n(-c3ccc(Cl)nc3)c(CC(C)C(F)(F)F)nc21 (stereo not shown) [Compound 7, 1-(6-chloropyridin-3-yl)-9-ethyl-2-(3,3,3-trifluoro-2-methylpropyl)-1,9-dihydro-6H-purin-6-one]
